# Data from ChEMBL document CHEMBL1201862, “PubChem BioAssay data set” (2004).
# Calls of active or inactive are those of the source. For most assays here, no stated cut-off is given here; in the data, actives have a measured EC50 and inactives only a lower limit.
# Assays:
# P388/ADR = assay: cells; format: functional; details: Mus musculus, P388/ADR
# SN12K1 = assay: cells; format: functional; details: Homo sapiens, SN12K1
# [1] = target: T1, Ubiquitin-conjugating enzyme E2 N (Homo sapiens, UniProt P61088); format: functional;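 further: Dose-response confirmation in a TR-FRET assay detecting UBC13-driven polyubiquitin chain formation, inhibition measured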
# T1 sequence (P61088 whole entry): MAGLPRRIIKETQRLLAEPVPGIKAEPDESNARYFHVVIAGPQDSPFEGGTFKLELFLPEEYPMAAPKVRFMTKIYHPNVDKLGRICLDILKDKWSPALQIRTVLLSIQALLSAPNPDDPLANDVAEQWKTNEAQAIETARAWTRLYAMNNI
# [2] = target: T2, DNA repair and recombination protein RAD54-like (Homo sapiens, UniProt Q92698); assay: inhibitors of human RAD54 branch migration, confirmation, biochemical, fluorescence, cherry-picked samples, dose series (AID 651657); format: functional
# T2 sequence (Q92698 whole entry): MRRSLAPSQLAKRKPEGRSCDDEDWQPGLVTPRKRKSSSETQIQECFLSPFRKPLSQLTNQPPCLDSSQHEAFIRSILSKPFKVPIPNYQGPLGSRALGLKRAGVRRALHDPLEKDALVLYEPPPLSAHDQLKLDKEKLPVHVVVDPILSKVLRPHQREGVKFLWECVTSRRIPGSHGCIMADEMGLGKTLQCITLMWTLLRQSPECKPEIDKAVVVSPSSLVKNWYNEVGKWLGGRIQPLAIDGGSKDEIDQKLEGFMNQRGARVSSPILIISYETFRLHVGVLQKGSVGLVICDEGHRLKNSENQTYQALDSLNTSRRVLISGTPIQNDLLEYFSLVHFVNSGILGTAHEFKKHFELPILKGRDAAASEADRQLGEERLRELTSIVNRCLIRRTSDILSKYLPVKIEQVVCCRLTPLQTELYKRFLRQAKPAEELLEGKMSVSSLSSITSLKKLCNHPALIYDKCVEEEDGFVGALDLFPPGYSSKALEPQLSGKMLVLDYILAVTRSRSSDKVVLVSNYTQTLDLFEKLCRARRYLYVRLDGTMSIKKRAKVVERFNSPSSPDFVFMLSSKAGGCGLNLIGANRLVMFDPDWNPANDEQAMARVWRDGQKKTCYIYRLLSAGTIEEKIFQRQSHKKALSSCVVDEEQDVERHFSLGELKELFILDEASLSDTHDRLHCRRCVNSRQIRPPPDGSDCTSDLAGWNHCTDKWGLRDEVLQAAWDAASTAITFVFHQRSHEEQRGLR
# HeLa = assay: HeLa cell cytotoxicity, dose response, cytotoxicity control for MITF activator project, CellTiter-Glo luminescence, cherry-pick samples (AID 540259); format: functional, cell-based; details: Homo sapiens
# Leucine aminopeptidase = target: T3, Leucine aminopeptidase (Plasmodium falciparum 3D7, UniProt Q8IL11); assay: P. falciparum M17LAP inhibitors, primary screen, biochemical, fluorogenic H-Leu-NHMec substrate, 1536-well (AID 1619); format: functional
# T3 sequence (Q8IL11 whole entry): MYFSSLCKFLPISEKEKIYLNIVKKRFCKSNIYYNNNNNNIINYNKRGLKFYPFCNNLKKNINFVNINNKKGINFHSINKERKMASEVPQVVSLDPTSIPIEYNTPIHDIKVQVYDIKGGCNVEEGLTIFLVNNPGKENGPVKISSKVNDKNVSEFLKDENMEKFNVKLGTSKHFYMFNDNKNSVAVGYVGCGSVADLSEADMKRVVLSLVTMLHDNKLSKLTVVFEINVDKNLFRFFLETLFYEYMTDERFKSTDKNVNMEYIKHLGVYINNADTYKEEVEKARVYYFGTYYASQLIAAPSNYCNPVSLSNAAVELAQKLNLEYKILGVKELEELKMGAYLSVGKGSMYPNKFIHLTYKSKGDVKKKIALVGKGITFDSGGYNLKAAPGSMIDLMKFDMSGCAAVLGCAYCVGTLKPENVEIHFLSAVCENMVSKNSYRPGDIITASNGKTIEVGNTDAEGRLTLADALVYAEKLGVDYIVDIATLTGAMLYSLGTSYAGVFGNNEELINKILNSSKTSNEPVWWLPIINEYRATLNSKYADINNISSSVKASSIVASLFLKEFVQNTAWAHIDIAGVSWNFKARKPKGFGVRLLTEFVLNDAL
# [3] = target: T4, Zinc finger protein mex-5 (Caenorhabditis elegans, UniProt Q9XUB2); assay: MEX-5/TCR-2 RNA interaction inhibitors, dose response, biochemical, C. elegans, fluorescence polarization (AID 1960)
# T4 sequence (Q9XUB2 whole entry): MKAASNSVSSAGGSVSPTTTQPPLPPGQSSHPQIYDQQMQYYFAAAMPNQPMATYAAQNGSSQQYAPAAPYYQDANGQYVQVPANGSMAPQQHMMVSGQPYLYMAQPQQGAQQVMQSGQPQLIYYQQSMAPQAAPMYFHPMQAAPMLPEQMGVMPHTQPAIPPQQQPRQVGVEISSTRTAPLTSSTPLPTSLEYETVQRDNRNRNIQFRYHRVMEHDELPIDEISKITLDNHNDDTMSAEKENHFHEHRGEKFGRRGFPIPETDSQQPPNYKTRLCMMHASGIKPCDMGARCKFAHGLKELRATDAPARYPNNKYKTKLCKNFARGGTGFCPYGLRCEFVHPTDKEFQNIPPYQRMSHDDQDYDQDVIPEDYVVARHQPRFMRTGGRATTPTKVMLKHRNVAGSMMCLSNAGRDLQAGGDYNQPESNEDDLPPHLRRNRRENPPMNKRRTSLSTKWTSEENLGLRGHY
# [4] = target: T5, RNA-binding protein pos-1 (Caenorhabditis elegans, UniProt G5EF15); assay: inhibitors of POS-1/mex-3 RNA binding, dose response, biochemical, fluorescence polarization (AID 1964);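 further: purified POS-1 fused to maltose binding protein made in E. coli; potency of compounds blocking POS-1 binding to fluorescent RNA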
# T5 sequence (G5EF15 whole entry): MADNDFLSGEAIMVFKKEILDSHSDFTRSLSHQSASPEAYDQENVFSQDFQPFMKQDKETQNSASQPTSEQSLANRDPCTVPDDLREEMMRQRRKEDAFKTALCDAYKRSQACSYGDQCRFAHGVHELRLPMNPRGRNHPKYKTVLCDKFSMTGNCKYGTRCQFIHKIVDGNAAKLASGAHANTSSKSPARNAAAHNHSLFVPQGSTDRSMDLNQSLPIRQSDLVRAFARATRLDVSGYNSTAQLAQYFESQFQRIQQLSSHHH
# [5] = cytotoxicity in KRAS-transformed pancreatic duct cells, primary screen, cell-based, fluorescence, HTS (AID 431); format: functional; details: Homo sapiens;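 further: cell line used: HPDE-C7K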
# [6] = cytotoxicity in HPDE-C7 cells, cell-based, fluorescence, HTS (AID 430); format: functional; details: Homo sapiens
# BJ [7] = assay: cytotoxicity toward BJ-TERT fibroblasts, dose response, cell-based, RAS-independent, luminescence (AID 1933); format: functional; details: Homo sapiens
# [8] = target: Luciferin 4-monooxygenase (Photinus pyralis, UniProt P08659); assay: firefly luciferase enzyme inhibitors, dose response, biochemical, luminescence (AID 1891)
# Chain of Luciferin 4-monooxygenase (P08659 whole entry): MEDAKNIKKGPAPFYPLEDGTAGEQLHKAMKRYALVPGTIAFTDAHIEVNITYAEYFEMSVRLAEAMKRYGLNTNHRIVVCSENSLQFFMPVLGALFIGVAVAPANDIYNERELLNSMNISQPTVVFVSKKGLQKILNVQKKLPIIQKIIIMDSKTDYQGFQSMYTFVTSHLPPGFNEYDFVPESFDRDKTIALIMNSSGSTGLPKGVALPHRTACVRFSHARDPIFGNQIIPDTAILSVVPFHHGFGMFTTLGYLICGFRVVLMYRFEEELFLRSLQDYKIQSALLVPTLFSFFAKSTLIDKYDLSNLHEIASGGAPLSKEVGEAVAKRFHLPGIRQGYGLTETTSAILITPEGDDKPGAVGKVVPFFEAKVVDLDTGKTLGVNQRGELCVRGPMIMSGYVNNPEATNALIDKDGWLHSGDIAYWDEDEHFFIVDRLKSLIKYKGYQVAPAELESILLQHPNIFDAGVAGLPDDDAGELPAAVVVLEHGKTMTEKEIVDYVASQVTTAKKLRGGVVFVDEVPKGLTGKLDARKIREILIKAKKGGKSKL
# BJ [9] = assay: cytotoxicity toward BJ-TERT-LT-ST fibroblasts, dose response, cell-based, RAS-independent, luminescence (AID 1935); format: functional; details: Homo sapiens;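 further: BJ fibroblasts immortalized with TERT plus LT and ST oncogenes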
# [10] = Luminescence Cell-Based Dose Confirmation HTS to Identify Inhibitors of Platelet Dense Granule Release. [Related pubchem assays: 1663 (Primary HTS), 1678 (Summary of Project)]; format: functional
# BJ [11] = assay: cells; format: functional, cell-based; details: Homo sapiens
# [12] = cytotoxicity toward DRD oncogenic fibroblasts, dose response, cell-based, non-viral oncogenic, luminescence (AID 1934); format: functional; details: Homo sapiens
# [13] = Luminescence Cell-Based Dose Retest to Confirm Inhibitors of Cancer Stem Cells. [Related pubchem assays (depositor defined):AID2717, AID2721]; format: functional; details: Homo sapiens
# [14] = Luminescence Cell-Based Dose Response HTS to Identify Inhibitors of 5'UTR Stem-Loop Driven Prion Protein mRNA Translation in H4 Neuroglioblastoma Cells. [Related pubchem assays: 1827 (Project Summary), 1813 (Primary HTS)]; format: functional
# [15] = inhibitors of SNCA 5'UTR-driven reporter translation, confirmation, H4 neuroglioma cells, luminescence (AID 1988); format: functional, cell-based
# [16] = target: T6, Heat shock factor protein 1 (Mus musculus, UniProt P38532); assay: inhibition of MG132-induced HSE-luciferase signal, confirmation, cell-based, NIH3T3, luminescence, dose retest (AID 2382); format: functional;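 further: NIH3T3 fibroblasts with HSF1-driven luciferase reporter stressed by proteasome inhibitor MG132; luminescence from HSF1-driven luciferase expression after 8 hours of MG132 stress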
# T6 sequence (P38532 whole entry): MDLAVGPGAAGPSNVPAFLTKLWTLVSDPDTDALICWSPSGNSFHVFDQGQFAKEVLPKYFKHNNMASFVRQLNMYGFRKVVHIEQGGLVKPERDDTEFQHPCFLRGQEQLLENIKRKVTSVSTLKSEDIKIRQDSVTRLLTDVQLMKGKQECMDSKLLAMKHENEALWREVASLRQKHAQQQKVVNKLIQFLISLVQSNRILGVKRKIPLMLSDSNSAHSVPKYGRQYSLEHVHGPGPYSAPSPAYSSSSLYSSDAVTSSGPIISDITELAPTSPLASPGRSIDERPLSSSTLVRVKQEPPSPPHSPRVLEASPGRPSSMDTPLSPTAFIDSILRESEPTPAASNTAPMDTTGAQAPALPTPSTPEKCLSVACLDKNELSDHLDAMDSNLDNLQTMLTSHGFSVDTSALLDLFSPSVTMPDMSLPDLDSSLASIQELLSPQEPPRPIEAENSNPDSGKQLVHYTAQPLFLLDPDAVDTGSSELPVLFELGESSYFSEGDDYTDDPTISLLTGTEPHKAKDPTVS
# [17] = HepG2 cell cytotoxicity, dose response, cytotoxicity control for Shn3 inhibitor project, CellTiter-Glo, cherry-picked (AID 624134); format: functional, cell-based
# INS1 = assay: beta cell apoptosis inhibitors, cytokine rescue, dose response, luminescence, retest (AID 449756); format: functional, cell-based; details: Rattus norvegicus;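 further: cell death triggered by IL-1 beta plus TNF-alpha plus IFN-gamma mixture; protective hits raise ATP signal compared with cytokine alone wells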
# [18] = inhibitors of firefly luciferase expression or activity, dose response, H4 neuroglioma cells, luminescence (AID 1990); format: functional, cell-based
# [19] = Shn3 3'UTR reporter inhibitors, dose response, cell-based, Clone20 osteoblasts, firefly luciferase, cherry-picked (AID 624132); format: functional;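 further: firefly luciferase luminescence from reporter carrying the Shn3 3'UTR in osteoblasts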
# [20] = control 3'UTR Renilla luciferase suppression, dose response, counter-screen for Shn3 inhibitor project, cell-based, Clone20-Shn3RL, cherry-picked (AID 624133); format: functional
structure (smiles),measurement,setting,value
O=NN(CCCl)C(=O)NC1CCC(CC2CCC(NC(=O)N(CCCl)N=O)CC2)CC1 (stereo unspecified),GI50,P388/ADR,1.64 µM (inactive)
same,GI50,SN12K1,0.385 µM (active)
CCn1c(=O)c2cc(C(=O)NCCN(C)C)sc2c2ccccc21,IC50,[1],> 20 µM (inactive)
same,AC50,[2],30.7 µM (active)
CCn1cc(C(=O)NCCN(C)C)c(=O)c2cc(F)c(N3CCN(C)CC3)cc21,AC50,[2],21.1 µM (active)
C=CCC1(CC=C)CCCN1C(=O)C1CCC(=O)N(CCc2ccccc2)C1 (stereo unspecified),AC50,HeLa,93 µM (active)
Cc1ccc(-c2cc(-c3ccc(C)cc3O)[nH]n2)cc1,AC50,HeLa,44.6 µM (active)
COc1ccc(-c2csc(-n3cccn3)n2)cc1,AC50,HeLa,33.9 µM (active)
CC(C)=NN=C(N)NC(=S)Nc1ccc(C)cc1,IC50,Leucine aminopeptidase,59.3 µM (active)
CC(C)N1CCc2c(sc(NC(=O)c3ccc(C(=O)c4ccccc4)cc3)c2C(N)=O)C1,AC50,[2],68.7 µM (active)
CCOC(=O)c1cc(=O)n2nc(-c3ccccc3F)nc2s1,IC50,Leucine aminopeptidase,31.2 µM (active)
same,EC50,[3],> 300 µM (not active)
same,EC50,[4],> 300 µM (not active)
CCCCNC(=S)Nc1ccc2cn[nH]c2c1,IC50,Leucine aminopeptidase,75.6 µM (active)
CC(C)Cn1nc(NS(=O)(=O)c2ccccc2)c2cc3ccccc3nc21,EC50,[5],> 20 µM (not active)
same,EC50,[6],> 20 µM (not active)
CC(=O)c1sc(NC(=O)c2ccc3c(c2)OCO3)nc1C,AC50,HeLa,51.5 µM (active)
O=C(Nc1ccccc1)Nc1ccc(C(=O)N2CCCC2)cc1,EC50,BJ [7],9.11 µM (active)
same,EC50,[8],0.571 µM (active)
same,EC50,BJ [9],> 150 µM (inconclusive)
same,EC50,[10],3.93 µM (active)
same,EC50,BJ [11],9.01 µM (active)
same,EC50,[12],7.86 µM (active)
NS(=O)(=O)c1ccc(NC=C2C(=O)N(C3CCCCC3)C(=O)N(C3CCCCC3)C2=O)cc1,EC50,[5],5.81 µM (active)
same,EC50,[6],5.47 µM (active)
same,AC50,[13],3.92 µM (active)
c1csc(-c2noc(COc3ccc4c(c3)CCCC4)n2)c1,AC50,HeLa,> 350 µM (inactive)
CCOC(=O)c1c(NC(=O)c2ccc(-n3cnnn3)cc2)sc2c1CCCC2,EC50,[5],> 20 µM (not active)
same,EC50,[6],> 20 µM (not active)
CC(C)c1ccc(NC2=NN=C(c3cccs3)CS2)cc1,AC50,HeLa,63.8 µM (active)
O=C(CCl)Nc1ccccc1C(=O)NCc1ccccc1,EC50,BJ [7],> 150 µM (not active)
same,EC50,BJ [9],> 150 µM (not active)
same,EC50,BJ [11],> 150 µM (not active)
same,EC50,[12],> 150 µM (inconclusive)
O=C(N/N=C\c1cccc(Cl)c1)c1[nH]nc2c1CCCC2,AC50,HeLa,> 350 µM (inactive)
CC[C@H]1CN2CCc3cc(OC)c(OC)cc3[C@@H]2C[C@@H]1C[C@H]1NCCc2cc(OC)c(OC)cc21,EC50,[14],< 0.1 µM (active)
same,EC50,[15],< 0.1 µM (active)
same,EC50,[5],0.09 µM (active)
same,EC50,[16],< 0.16 µM (active)
same,AC50,[17],40.5 µM (active)
same,AC50,INS1,2.35 µM (active)
same,EC50,[18],< 0.1 µM (active)
same,AC50,[19],< 0.26 µM (active)
same,AC50,[20],0.33 µM (active)
same,EC50,[6],0.15 µM (active)
CCOc1ccc2[nH]c3c(NCCN(C)C)ncnc3c2c1,AC50,[2],55.6 µM (active)
